The values that follow are results of earlier work, collected in US10004757B1, “Oral supplement” (Nutri Vida, LLC, priority 2017, dated 2018).

The conditions of the series: taken over the daily recommended amount.

Regarding `O=C(O)c1cccnc1` [Niacin, nicotinic acid], the decrease in triglycerides was 30%.
